By IC50 is commonly meant the concentration at which inhibition is half-maximal.

The values below come from US20250214977A1, “STAT6 INHIBITORS AND USES THEREOF” (Kymera Therapeutics, Inc., priority 2024, published 2025).

The subject of one assay is Phosphorylation of STAT6 in human A549 cells. Nature of the assay: Phosphorylated STAT6 (pSTAT6) flow cytometry assay in human A549 cells. Type of assay: cell-based. Particulars: listed as I-393, read-out: STAT6 IL4 pSTAT6 assay in A549 cells: Average IC50. The text has this:
Example 3. Phosphorylated STAT6 (pSTAT6) Flow Cytometry Assay in Human A549 Cells
Phosphorylation of STAT6 in human A549 cells was quantitatively measured using flow cytometry technology.
For `CCC1CN(C)CC1c1cc(C2=CCCN(C(=O)CCn3ccnn3)C2)c(F)c2[nH]c(C(=O)N3CCN(c4ncc(F)cc4OC)CC3)cc12` (stereo not drawn) [Example I-1208, 1-[5-[4-(4-ethyl-1-methyl-pyrrolidin-3-yl)-7-fluoro-2-[4-(5-fluoro-3-methoxy-2-pyridyl)piperazine-1-carbonyl]-1H-indol-6-yl]-3,6-dihydro-2H-pyridin-1-yl]-3-(triazol-1-yl)propan-1-one], the half-inhibitory concentration (IC50) is less than 0.1 µM.

Still in this assay, the particulars now being: read-out: STAT6 IL4 pSTAT6 assay in A549 cells: Average IC50.
For `Cc1ccccc1-c1cc(C2=CCCN(C(=O)CCn3ccnn3)C2)cc2cc(C(=O)N(C)C)oc12` [Example I-1086], the IC50 is less than 0.1 µM.
On the same count and under the same terms, the result for `CN(C)C(=O)c1cc2cc(C3=CCCN(C(=O)CCn4ccnn4)C3)cc(C3CCNCC3)c2o1` [Example I-1048] reads less than 0.1 µM; that for `CCc1nc(C)ccc1-c1cc(C(=O)N2CCN(c3ncc(F)cc3OC)CC2)cc2cc(C3=CCCN(C(=O)CCn4cccn4)C3)n(CC3CC3)c12` [Example I-522], less than 0.1 µM; that for “(1S)-3-[4-(4-ethyl-3-pyridyl)-7-fluoro-2-[4-(5-fluoro-3-methoxy-2-pyridyl)piperazine-1-carbonyl]-1H-indol-6-yl]cyclohex-3-ene-1-carboxylic acid [Example I-809]”, less than 0.1 µM.
Same read-out and setting: with `COc1cccc(N2CCN(C(=O)c3cc4c(-c5cc(F)c(F)cc5OC)cc(C5=CCCN(C(=O)CCn6ccnn6)C5)c(F)c4[nH]3)CC2)n1` [Example I-590] the figure was less than 0.1 µM.
Consider `COc1cc(F)cnc1N1CCN(C(=O)c2cc3c(-c4cccc(C)c4)cc(C4=CCCN(C(=O)CCn5ccnn5)C4)c(F)c3[nH]2)CC1` [Example I-673], for which the IC50 is less than 0.1 µM.
Turning to `COc1ccccc1-c1cc(C2=CCCN(C(=O)CCn3ccnn3)C2)c(F)c2[nH]c(C(=O)Nc3cccn(C)c3=O)cc12` [Example I-1027], the 50% inhibitory concentration (IC50) was in the range of 0.1 to 1 µM.
The same measure, in the same setting: with `COc1ncccc1-c1cc(C(=O)N2Cc3cnn(C)c3C2)cc2cc(C3=CCCN(C(=O)CC(=O)O)C3)n(CC3CC3)c12` [Example I-791] the figure was less than 0.1 µM; with `COc1ccccc1-c1cc(C2=CCCN(C(=O)CCn3ccnn3)C2)c(F)c2[nH]c(C(=O)N3CCN(c4ncnc5cccc(F)c45)CC3)cc12` [Example I-929], less than 0.1 µM; with `CCc1cnccc1-c1cc(C(=O)N2CCN(c3ncc(F)cc3OC)CC2)cc2cc(C3=CCCN(C(=O)C(=O)O)C3)n(CC3CC3)c12` [Example I-796], greater than 100 µM.
The same measure, in the same setting: the result for `COc1cccnc1N1CCN(C(=O)c2cc3c(-c4cccc(F)c4OC)cc(C4=CCCN(C(=O)CCn5ccnn5)C4)c(F)c3[nH]2)CC1` [Example I-399] reads greater than 100 µM.
`COC(=O)c1ccc(OC)c(N2CCN(C(=O)c3cc4c(-c5ccccc5OC)cc(C5=CCCN(C(=O)CCn6ccnn6)C5)c(F)c4[nH]3)CC2)n1` [Example I-360]: the IC50 is less than 0.1 µM.
Same read-out and setting: the result for `COc1cc(F)cnc1N1CCN(C(=O)c2cc3c(-c4cnn(C5CC5)c4)cc(C4=CCCN(C(=O)CCn5ccnn5)C4)c(F)c3[nH]2)CC1` [Example I-1151] reads less than 0.1 µM; that for `CC(=O)N1CCC=C(c2cc(-c3ccc(C)cc3O)c3cc(C(=O)N(C)C)[nH]c3c2F)C1` [Example I-886], 0.1 to 1 µM; that for `COc1ccccc1N1CCN(C(=O)c2cc3c(-c4cnccc4OC(F)F)cc(C4=CCCN(C(=O)CCn5ccnn5)C4)c(F)c3[nH]2)CC1` [Example I-426], less than 0.1 µM.
The same measure, in the same setting: with `COc1ccccc1-c1cc(C2=CCCN(C(=O)CCn3ccnn3)C2)c(F)c2[nH]c(C(=O)N3CCN(c4ccnc(Nc5ccc(C#N)cc5)n4)CC3)cc12` [Example I-948] the figure was less than 0.1 µM; with `Cc1cnnn1CCC(=O)N1CCC=C(c2ccc3cc(C(=O)N(C)C)[nH]c3c2)C1` [Example I-827], 0.1 to 1 µM.
Still for that read-out and setting: with `COc1ccccc1-c1cc(C2=CCCN(C(=O)CCn3ccnn3)C2)c(F)c2[nH]c(C(=O)N3CCC(c4ccccc4OC)CC3)cc12` [Example I-422] the figure was less than 0.1 µM.
For the compound `COCOc1ccc(-c2cc(C3=CCCN(C(=O)CCn4ccnn4)C3)c(F)c3[nH]c(C(=O)N4CCN(c5ncc(F)cc5OC)CC4)cc23)cc1` [Example I-1147], the 50% inhibitory concentration (IC50) was less than 0.1 µM.
The same measure, in the same setting: the result for `COc1ccccc1-c1cc(C2=CCCN(C(=O)CCn3ccnn3)C2)c(F)c2[nH]c(C(=O)N3CC=C(C4CC4)CC3)cc12` [Example I-511] reads less than 0.1 µM; that for `COC(=O)CC(=O)N1CCC=C(c2cc3cc(C(=O)N4Cc5cnn(C)c5C4)cc(-c4cccnc4OC)c3n2CC2CC2)C1` [Example I-795], greater than 100 µM.
Still for that read-out and setting: the result for `COc1ccccc1-c1cc(C2=CCCN(C(=O)CCn3ccnn3)C2)c(F)c2[nH]c(C(=O)N3CCN(c4cc5cnn(C)c5cc4C)CC3)cc12` [Example I-925] reads 0.1 to 1 µM.
Still for that read-out and setting: the result for `COc1cc(F)cnc1N1CCN(C(=O)c2cc3c(-c4cc(C)nc(C)c4)cc(C4=CCCN(C(=O)CCn5ccnn5)C4)c(F)c3[nH]2)CC1` [Example I-632] reads less than 0.1 µM.
Consider `COc1nc(N2CCN(C(=O)c3cc4c(-c5cnc6ccccc6c5OC)cc(C5=CCCN(C(=O)CCn6ccnn6)C5)c(F)c4[nH]3)CC2)ccc1F` [Example I-469], for which the half-inhibitory concentration (IC50) was 0.1 to 1 µM.
The same measure, in the same setting: with `CCn1ncc2c1CN(C(=O)c1cc3c(-c4cnc(C5CC5)cc4C)cc(C4=CCCN(C(=O)CCn5ccnn5)C4)c(F)c3[nH]1)C2` [Example I-766] the figure was greater than 100 µM.
Same read-out and setting: with `COc1ccccc1-c1cc(C2=CCCN(C(=O)CCn3ccnn3)C2)c(F)c2[nH]c(C(=O)N3CCN(c4nc(C)nc5ccccc45)CC3)cc12` [Example I-923] the figure was less than 0.1 µM; with `COc1cc(F)cnc1N1CCN(C(=O)c2cc3c(C4=COCCC4)cc(C4=CCCN(C(=O)CCn5ccnn5)C4)c(F)c3[nH]2)CC1` [Example I-1155], less than 0.1 µM.
Still for that read-out and setting: the result for “5-(1-(2-formyl-1,2,3,4-tetrahydroisoquinoline-3-carbonyl)-1,2,5,6-tetrahydropyridin-3-yl)-7-(2-methoxyphenyl)-N,N-dimethylbenzofuran-2-carboxamide [Example I-803]” reads greater than 100 µM.
On to `COc1ccccc1-c1cc(C2=CCCN(C(=O)CCn3ccnn3)C2)c(F)c2[nH]c(C(=O)N3CCN(c4ncccc4C(C)C)CC3)cc12` [Example I-333], for which the IC50 was less than 0.1 µM.
Same read-out and setting: with `CN(C)C(=O)c1cc2cc(C3=CCCN(C(=O)CCn4ccnn4)C3)cc(CN3CCNCC3)c2o1` [Example I-1179] the figure was less than 0.1 µM.
The same measure, in the same setting: with `CN1CCN(c2ccc(-c3cc(C4=CCCN(C(=O)CCn5ccnn5)C4)cc4cc(C(=O)N(C)C)oc34)cn2)CC1` [Example I-1087] the figure was less than 0.1 µM; with `COc1cc(F)cnc1N1CCN(C(=O)c2cc3c(-c4cc(C)cc5cccnc45)cc(C4=CCCN(C(=O)CCn5ccnn5)C4)c(F)c3[nH]2)CC1` [Example I-633], less than 0.1 µM.
Still for that read-out and setting: with `COc1cc(F)cnc1N1CCN(C(=O)c2cc3c(C4=CCC5(CC4)CC5)cc(C4=CCCN(C(=O)CCn5ccnn5)C4)c(F)c3[nH]2)CC1` [Example I-1159] the figure was 0.1 to 1 µM; with `COC(=O)CCC#Cc1cc(C2=CCCN(C(=O)C3Cc4ccccc4CN3C=O)C2)cc2cc(C(=O)N(C)C)oc12` (stereo not drawn) [Example I-823], less than 0.1 µM; with `CN(C)C(=O)c1cc2cc(C3=CCCN(C(=O)CCn4ccnn4)C3)cc(-c3cc(F)ccc3C(F)(F)F)c2o1` [Example I-1081], less than 0.1 µM.
As for `COc1ccccc1-c1cc(C2=CCCN(C(=O)CCn3ccnn3)C2)c(F)c2[nH]c(C(=O)N3CCN(c4c(OC)cccc4Oc4ccccc4)CC3)cc12` [Example I-414], the IC50 lay in the range of 0.1 to 1 µM.
Still for that read-out and setting: with `CC(=O)N1CCC=C(c2cc(-c3ccccc3C(N)=O)c3cc(C(=O)N(C)C)[nH]c3c2F)C1` [Example I-1099] the figure was 0.1 to 1 µM; with `COc1ccccc1-c1cc(C2=CCCN(C(=O)CCn3ccnn3)C2)c(F)c2[nH]c(C(=O)N3Cc4cnn(C)c4C3)cc12` [Example I-464], less than 0.1 µM.
Same read-out and setting: the result for `Cc1cc(F)ccc1-c1cc(C2=CCCN(C(=O)CCn3ccnn3)C2)cc2cc(C(=O)N(C)C)oc12` [Example I-1083] reads less than 0.1 µM; that for `COc1ccccc1-c1cc(C2CCCN(C(=O)CCn3ccnn3)C2)c(F)c2[nH]c(C(=O)N3CCN(c4ncccc4OC4CC4)CC3)cc12` (stereo not drawn) [Example I-364], less than 0.1 µM; that for `COc1cc(F)cnc1N1CCN(C(=O)c2cc3c(-c4ccc(C(=O)N(C)C)cc4)cc(C4=CCCN(C(=O)CCn5ccnn5)C4)c(F)c3[nH]2)CC1` [Example I-1165], less than 0.1 µM.
On the same count and under the same terms, the result for `COc1cccnc1N1CCN(C(=O)c2cc3c(-c4ccc5ncccc5c4OC)cc(C4=CCCN(C(=O)CCn5ccnn5)C4)c(F)c3[nH]2)CC1` [Example I-577] reads less than 0.1 µM; that for `CC(=O)N1CCC=C(c2cc(-c3ccc(C(F)(F)F)cc3O)c3cc(C(=O)N(C)C)[nH]c3c2F)C1` [Example I-888], 0.1 to 1 µM; that for `COc1cc(F)cnc1N1CCN(C(=O)c2cc3c(C4=CCN(Cc5ccccc5)CC4)cc(C4=CCCN(C(=O)CCn5ccnn5)C4)c(F)c3[nH]2)CC1` [Example I-1132], less than 0.1 µM.
As to `COc1cccnc1N1CCN(C(=O)c2cc3c(N4CCCOCC4)cc(C4=CCCN(C(=O)CCn5ccnn5)C4)c(F)c3[nH]2)CC1` [Example I-592], the IC50 is less than 0.1 µM.
`COc1cc(F)cnc1N1CCN(C(=O)c2cc3c(-c4ccc(OC5CCCCO5)cc4)cc(C4=CCCN(C(=O)CCn5ccnn5)C4)c(F)c3[nH]2)CC1` (stereo not drawn) [Example I-1166]: the IC50 is less than 0.1 µM.
The same measure, in the same setting: with `COc1ncccc1-c1cc(C2=CCCN(C(=O)CCn3ccnn3)C2)cc2cc(C(=O)N(C)C)oc12` [Example I-1082] the figure was less than 0.1 µM; with `CC(=O)N1CCC=C(c2cc(-c3cc(C#N)ccc3C)c3cc(C(=O)N(C)C)[nH]c3c2F)C1` [Example I-884], 0.1 to 1 µM.
In the case of `COc1cc(F)cnc1N1CCN(C(=O)c2cc3c(-c4ccc(OC5CCOCC5)cc4)cc(C4=CCCN(C(=O)CCn5ccnn5)C4)c(F)c3[nH]2)CC1` [Example I-1111], the half-maximal inhibitory concentration (IC50) is less than 0.1 µM.
Take `COc1ccccc1-c1cc(C2=CCCN(C(=O)CCn3ccnn3)C2)c(F)c2[nH]c(C(=O)N3CCN(c4ccnc5c4CC(=O)N5)CC3)cc12` [Example I-914]: the concentration for half-maximal inhibition (IC50) was less than 0.1 µM.
